Consider 6 compounds from the supplement of paper PMC8671470.

SMILES strings stand for the structures.

Test in all cases: cell viability (% survival relative to DMSO control, bortezomib = 0%); higher = less cytotoxic
Holding throughout (conditions): 72 h

In one experiment the test system is BV-173. Put shortly:
(§1)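 Fifteen myeloid leukaemia cell lines (10 AML, 5 CML) were seeded at a density titrated to the linear growth range. They went into 384-well plates with compounds pre-printed at 1, 10, 100, 1000 or 10000 nM in duplicate. After 72 h at 37 °C with 5% CO2, viability was read by CellTiter-Glo luminescence. Values are percent survival, with vehicle set to 100% and a 10 µM positive control to 0%, averaged over the duplicates.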

Another experiment relates to HEL. Put shortly: as §1
The next experiment concerns ML-2. Put shortly: as §1
A further experiment has as its system MOLM-13. Put shortly: as §1

By cell viability is commonly meant a read-out of living cells in per cent, often relative to untreated cells.

Consider `Clc1ccc2c(c1Cl)CNCC2`, for which the cell viability with BV-173 (1 nM) came out at 95%; with BV-173 (10 nM), 95.9%; with BV-173 (100 nM) it was 103%; with BV-173 (1000 nM), 107%; in the experiment with BV-173 (10000 nM) it was 83.6%; in the experiment on HEL (1 nM), 100%. The cell viability in the experiment on HEL (10 nM) came out at 111%; with HEL (100 nM), 90.9%; in the experiment with HEL (1000 nM), 107%; in the experiment on HEL (10000 nM) it was 82.4%; in the experiment on ML-2 (1 nM), 91.5%; with ML-2 (10 nM) it was 118%. In addition, the cell viability in the experiment with ML-2 (100 nM) turned out to be 90%; in the experiment on ML-2 (1000 nM), 102%; with ML-2 (10000 nM), 87.9%; with MOLM-13 (1 nM), 102%; in the experiment on MOLM-13 (10 nM), 125%; in the experiment with MOLM-13 (100 nM) it was 70.3%. The cell viability worked out at 92.3% in the experiment with MOLM-13 (1000 nM) and 83.7% in the experiment on MOLM-13 (10000 nM).

Turning to `O=C(O)C(S)=Cc1c[nH]c2ccc(F)cc12`, the cell viability in the experiment with BV-173 (1 nM) is 97.4%; in the experiment on BV-173 (10 nM), 98.1%; in the experiment on BV-173 (100 nM), 85.1%; in the experiment on BV-173 (1000 nM) it was 97.7%; in the experiment with BV-173 (10000 nM), 88%; with HEL (1 nM), 102%. Besides, the cell viability in the experiment on HEL (10 nM) came to 103%; in the experiment on HEL (100 nM) it was 95.4%; in the experiment on HEL (1000 nM) it was 94%; in the experiment on HEL (10000 nM), 101%; in the experiment on ML-2 (1 nM), 101%; with ML-2 (10 nM), 98.6%. For the same compound, the cell viability turned out to be 113% in the experiment on ML-2 (100 nM); 111% in the experiment on ML-2 (1000 nM); 91.5% in the experiment with ML-2 (10000 nM); 95.9% with MOLM-13 (1 nM); 103% with MOLM-13 (10 nM); 99.9% with MOLM-13 (100 nM). The values for the cell viability in the experiment on MOLM-13 (1000 nM) and with MOLM-13 (10000 nM) were 107% and 77.3%, respectively.

With `CC(C)Cc1sc(N)nc1-c1ccc(P(=O)(O)O)o1`, the cell viability in the experiment with BV-173 (1 nM) was found to be 85.3%; in the experiment with BV-173 (10 nM), 111%; in the experiment on BV-173 (100 nM) it was 102%; in the experiment on BV-173 (1000 nM) it was 95.2%; in the experiment on BV-173 (10000 nM), 86.7%; with HEL (1 nM), 95.3%. For the same compound, the cell viability in the experiment with HEL (10 nM) worked out at 93.1%; with HEL (100 nM), 118%; with HEL (1000 nM) it was 109%; in the experiment with HEL (10000 nM), 85.5%; in the experiment on ML-2 (1 nM) it was 98.1%; in the experiment with ML-2 (10 nM), 108%. The cell viability in the experiment with ML-2 (100 nM) stood at 105%; in the experiment with ML-2 (1000 nM), 103%; in the experiment on ML-2 (10000 nM), 92.7%; in the experiment with MOLM-13 (1 nM), 134%; with MOLM-13 (10 nM), 97%; in the experiment with MOLM-13 (100 nM), 102%. For the same compound, the figures for the cell viability in the experiment on MOLM-13 (1000 nM) and in the experiment on MOLM-13 (10000 nM) were 113% and 104%, respectively.

In the case of `Cl.OC[C@H]1NC[C@@H](O)[C@@H](O)[C@@H]1O` [1-Deoxymannojirimycin hydrochloride], the cell viability with BV-173 (1 nM) came out at 111%; in the experiment on BV-173 (10 nM) it was 83.1%; in the experiment on BV-173 (100 nM), 96.9%; in the experiment with BV-173 (1000 nM) it was 103%; in the experiment with BV-173 (10000 nM) it was 102%; with HEL (1 nM), 102%. For the same compound, the cell viability turned out to be 83.2% in the experiment on HEL (10 nM); 112% with HEL (100 nM); 119% in the experiment with HEL (1000 nM); 86.1% with HEL (10000 nM); 101% in the experiment on ML-2 (1 nM); 90.6% in the experiment with ML-2 (10 nM). In addition, the cell viability with ML-2 (100 nM) is 100%; in the experiment on ML-2 (1000 nM) it was 110%; with ML-2 (10000 nM), 87.6%; in the experiment with MOLM-13 (1 nM), 115%; in the experiment with MOLM-13 (10 nM), 88.3%; in the experiment with MOLM-13 (100 nM), 96.3%. Further, the cell viability in the experiment with MOLM-13 (1000 nM) worked out at 104%; in the experiment with MOLM-13 (10000 nM), 105%.

Consider `CN(C)c1nc(O)c2[nH]cnc2n1` [2-Dimethylamino-6-hydroxypurine], for which the cell viability stood at 104% in the experiment on BV-173 (1 nM); 93% with BV-173 (10 nM); 93.5% in the experiment on BV-173 (100 nM); 121% in the experiment on BV-173 (1000 nM); 93.9% with BV-173 (10000 nM); 105% with HEL (1 nM). In addition, the cell viability worked out at 85.3% in the experiment with HEL (10 nM); 114% in the experiment on HEL (100 nM); 106% in the experiment with HEL (1000 nM); 84.8% in the experiment on HEL (10000 nM); 97.7% in the experiment with ML-2 (1 nM); 89.6% in the experiment on ML-2 (10 nM). The cell viability with ML-2 (100 nM) is 95.3%; in the experiment with ML-2 (1000 nM), 107%; in the experiment on ML-2 (10000 nM), 94.5%; in the experiment on MOLM-13 (1 nM), 96.1%; with MOLM-13 (10 nM), 65.7%; in the experiment with MOLM-13 (100 nM) it was 104%. Moreover, the values for the cell viability with MOLM-13 (1000 nM) and in the experiment on MOLM-13 (10000 nM) were 91% and 66.9%, respectively.

With `O=C(O)c1cc2sccc2[nH]1` [4H-thieno[3,2-b]pyrrole-5-carboxylic acid], the cell viability with BV-173 (1 nM) was determined as 104%; in the experiment on BV-173 (10 nM), 102%; in the experiment on BV-173 (100 nM), 102%; with BV-173 (1000 nM) it was 99.1%; in the experiment with BV-173 (10000 nM) it was 100%; in the experiment with HEL (1 nM), 120%. The cell viability in the experiment on HEL (10 nM) was 106%; in the experiment with HEL (100 nM), 97.5%; in the experiment on HEL (1000 nM) it was 93.5%; in the experiment on HEL (10000 nM) it was 108%; in the experiment with ML-2 (1 nM), 105%; in the experiment on ML-2 (10 nM) it was 96.6%. In addition, the cell viability with ML-2 (100 nM) is 84.2%; with ML-2 (1000 nM), 99.1%; with ML-2 (10000 nM), 113%; in the experiment with MOLM-13 (1 nM) it was 103%; in the experiment on MOLM-13 (10 nM), 94.7%; with MOLM-13 (100 nM), 89.3%. Moreover, the cell viability in the experiment with MOLM-13 (1000 nM) is 112%; with MOLM-13 (10000 nM) it was 109%.
